From patent US10093629B2, “Heterocyclic compounds and their use as retinoid-related orphan receptor (ROR) gamma-T inhibitors” (Takeda Pharmaceutical Company Limited, priority 2014, dated 2018)
Read-outs that look alike come from different tables or passages of the source.

Assays:
RORγt [1] = target: T1, RORγt (Homo sapiens, UniProt P51449); assay: RORγt binding test using fluorescent-labeled synthetic ligand (TR-FRET); conditions: read-out: binding inhibitory rate of fluorescent-labeled synthetic ligand to RORγt at test compound 1 μM
T1 sequence (P51449 1-497 isoform P51449-2): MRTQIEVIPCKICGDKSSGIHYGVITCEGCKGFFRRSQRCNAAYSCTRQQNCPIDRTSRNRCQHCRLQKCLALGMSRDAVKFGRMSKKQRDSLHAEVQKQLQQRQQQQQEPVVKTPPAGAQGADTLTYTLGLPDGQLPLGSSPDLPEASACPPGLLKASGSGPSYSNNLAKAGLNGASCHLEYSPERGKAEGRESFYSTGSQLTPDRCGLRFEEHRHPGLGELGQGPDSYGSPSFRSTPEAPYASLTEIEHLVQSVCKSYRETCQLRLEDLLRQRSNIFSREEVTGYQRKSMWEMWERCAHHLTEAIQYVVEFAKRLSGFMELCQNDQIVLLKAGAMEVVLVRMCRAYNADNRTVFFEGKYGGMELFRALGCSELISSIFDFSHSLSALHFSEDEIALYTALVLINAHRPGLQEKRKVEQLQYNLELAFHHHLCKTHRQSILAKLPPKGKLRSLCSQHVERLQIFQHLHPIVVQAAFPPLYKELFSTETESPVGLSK
Experimental: RORγt Binding Test using Fluorescent-Labeled Synthetic Ligand
The binding activity of the test compound to RORγt was measured by a time resolved fluorescence resonance energy transfer method (TR-FRET) utilizing histidine-tagged RORγt, fluorescent-labeled synthetic ligand and terbium-labeled anti-histidine tag antibody (Invitrogen). First, a test compound diluted with an assay buffer (20 mM Tris-HCl (pH 7.5), 100 mM NaCl, 1 mM DTT, 0.1% BSA) was added to a 384 well plate by 3 μL. Then, RORγt diluted with an assay buffer to 240 nM was added by 3 μL, after which fluorescent-labeled synthetic ligand diluted with the assay buffer to 12 μM was added by 3 μL, and the mixture was stood at room temperature for 20 min. Thereafter, a terbium-labeled anti-histidine tag antibody diluted with the assay buffer to 8 nM was added by 3 μL. The mixture was stood at room temperature for 20 min, and fluorescence intensity (excitation wavelength 320 nm, fluorescence wavelength 520 nm, delay time 100 microseconds) was measured by Envision (PerkinElmer).

[2] = tested on: IL-17 production in human blood; assay: Effect on IL-17 production in human blood; assay type: cell-based; conditions: 72 h; 10 μM test compound; human peripheral blood, IL-23 and Dynabeads stimulation, 3 days; read-out: percent inhibition at 10 μM (IL-17 production)
Experimental: Effect on IL-17 Production in Human Blood
The inhibitory effect of the test compound on IL-17 production in human blood was evaluated as follows. First, 150 μL of peripheral blood collected from healthy individuals using heparinized vacuum blood collection tubes was dispensed into each well of a 96-well plate (Corning), and 45 μL of RPMI 1640 medium (Gibco) containing 10% fetal bovine serum (FBS, Hyclone) and 30 μL of the test compound diluted with the medium were added to each well. The plate was then cultured for 30 min at 37° C. The cells were subsequently stimulated by adding 30 μL of 100 ng/mL human IL-23 (R&D) and 45 μL of Dynabeads Human (Invitrogen) to each well and culturing the plate for 3 days at 37° C. In wells without stimulation, 75 μL of RPMI 1640 medium containing 10% FBS was added instead of the IL-23 and Dynabeads solution. After culturing for 3 days, the culture supernatant was collected, and the amount of IL-17 in the supernatant was measured using an IL-17 ELISA kit (R&D).
The results (percent inhibition of IL-17 production with 10 μM of the test compound) measured by the above-mentioned method are shown in Table 8.

RORγt [3] = target: T1, RORγt; assay: Jurkat reporter test (human IL-17 ROR response element luciferase, RORγt vector); assay type: cell-based; conditions: test compound 3 μM, Jurkat cells, read-out: luminescence level inhibitory rate at test compound 3 μM
Experimental: The Jurkat cells used for the reporter test were cultured in a culture medium (RPMI (Invitrogen), 10% FCS (AusGeneX), 100 U/mL penicillin, 100 μg/mL streptomycin). On the day of the test, 4×10^7 cells were recovered by a centrifugal operation (1000 rpm, 5 min.) and suspended in PBS (phosphate buffered saline) (Invitrogen). Thereafter, the cells were recovered again by a centrifugal operation, and suspended in 2 mL of R buffer (NEON transfection kit, Invitrogen). […] Gene transfer was performed by Electroporation apparatus (NEON, Invitrogen) under the conditions of pulse voltage 1350 V, interval 10 milliseconds, number of times 3. The cells after gene transfer were suspended in 40 mL of a reaction medium (RPMI, 10% Lipid reduced FCS (HyClone), 10 mM HEPES (pH 7.5), 100 U/mL penicillin, 100 μg/mL streptomycin, 5 μM lovastatin), and plated in a 96 well plate by 90 μL. A test compound diluted with the reaction medium was added by 10 μL, and the cells were cultured overnight in an incubator. Bright-Glo (Promega) was added by 100 μL, and the mixture was stirred at room temperature for 10 min, and the luminescence level was measured by Envision (PerkinElmer).

RORγt [4] = target: T1, RORγt; assay: Cofactor recruitment test (Alpha Screen, biotinylated SRC-1 peptide); assay type: biochemical; conditions: read-out: signal value inhibitory rate at test compound 1 μM
Experimental: Cofactor Recruitment Test
Cofactor recruitment test was performed by Alpha Screen (Histidine Detection Kit, PerkinElmer) method. First, a test compound was diluted with an assay buffer (50 mM Tris-HCl (pH 7.5), 50 mM KCl, 1 mM DTT, 0.1% BSA) and added to a 384 well plate by 5 μL. […] The mixture was stood in a dark place for 1 hr, and the signal value was measured by Envision (PerkinElmer).

IL-17A gene expression = assay: Effect on IL-23-induced cytokine expression in mice; assay type: in vivo, mouse; conditions: 10 mg/kg oral, 30 min before and 8 hr after IL-23; ear of Balb/c mice; versus the negative control group
Experimental: Effect on IL-23-Induced Cytokine Expression in Mice
A mouse IL-23 solution (500 ng/10 μL, prepared by Takeda Pharmaceutical Company Limited) or PBS (10 μL, negative control group) was administered intradermally in the ear of Balb/c mice (Charles River Japan, male, 7 weeks old). Twenty-four hr after administration, the ear was resected under isoflurane anesthesia. The test compound was suspended in 0.5% methylcellulose and administered orally 30 min before and 8 hr after IL-23 administration.
RNA extraction from the ear tissue and quantitative PCR were performed as follows. Specifically, ear tissue 5 mm in diameter was punched from an area of the resected ear centering on the IL-23 injection site, and the tissue was immersed in RNAlater (QIAGEN) for at least 18 hr. The RNAlater-treated ear tissue was homogenized in 350 μL of RLT buffer (RNeasy mini kit, QIAGEN) and treated (55° C., 10 min) with Proteinase K (QIAGEN). Total RNA was then extracted according to the RNeasy mini kit protocol. The RNA thus obtained was then reverse transcribed into cDNA using the High-Capacity RNA-to-cDNA kit (Applied Biosystems), and the amount of each gene expressions was measured by real-time PCR (Viia7™, Applied Biosystems). The PCR buffer used was TaqMan Fast Advanced Master Mix (Applied Biosystems), and TaqMan Gene Expression Assays (Applied Biosystems) Mm00439618_m1 (IL-17A) and 4352341E (β-actin) were used for each gene detection. The IL-17A gene expression level was normalized to the β-actin gene expression level, and the percent inhibition of IL-17A gene expression with the test compound was then calculated.
The results (percent inhibition of IL-17A gene expression with oral administration of the test compound) measured by the above-mentioned method are shown in Table 9.

Q: Which inhibition at 1 µM (RORγt [1]; test compound 1 μM) does the source give for `CCOCC(C)(C)c1c(F)cc(NC(=O)[C@H]2c3ccc(OCC)cc3CCN2C(=O)[C@H]2C[C@@H](CC(=O)O)C2)cc1F` [Example 18, (cis-3-(((1R)-6-ethoxy-1-((4-(1-ethoxy-2-methylpropan-2-yl)-3,5-difluorophenyl)carbamoyl)-3,4-dihydroisoquinolin-2(1H)-yl)carbonyl)cyclobutyl)acetic acid] here?
A: 101%

Q: What about the inhibition at 10 µM [2] of the same compound?
A: 80%

Q: What about the inhibition at 3 µM (RORγt [3]; Jurkat) of the same compound?
A: 97%

Q: What about the inhibition at 1 µM (RORγt [4]; test compound 1 μM) of the same compound?
A: 70%

Q: For `COc1ccc2c(c1)CCN(C(=O)[C@H]1C[C@@H](C(=O)O)C1)[C@H]2C(=O)Nc1ccc([Si](C)(C)C)c(F)c1` [Example 32, cis-3-(((1R)-1-((3-fluoro-4-(trimethylsilyl)phenyl)carbamoyl)-6-methoxy-3,4-dihydroisoquinolin-2(1H)-yl)carbonyl)cyclobutanecarboxylic acid], which “percent inhibition of IL-17A gene expression” value (“percent inhibition” below) (IL-17A gene expression) is on record?
A: 83%

Q: What about the inhibition at 1 µM (RORγt [1]) of the same compound?
A: 102%

Q: And the inhibition at 3 µM (RORγt [3])?
A: 101%

Q: And the inhibition at 1 µM (RORγt [4])?
A: 91%

Q: What does the source list for `COc1ccc2c(n1)CCN(C(=O)[C@H]1C[C@@H]1CC(=O)O)[C@H]2C(=O)Nc1cc(F)c([Si](C)(C)C)c(F)c1` [Example 13, ((1R,2S)-2-(((5R)-5-((3,5-difluoro-4-(trimethylsilyl)phenyl)carbamoyl)-2-methoxy-7,8-dihydro-1,6-naphthyridin-6(5H)-yl)carbonyl)cyclopropyl)acetic acid]?
A: percent inhibition of IL-17A gene expression (IL-17A gene expression): 91%; inhibition at 1 µM (RORγt [1]): 102%; inhibition at 3 µM (RORγt [3]): 104%; inhibition at 1 µM (RORγt [4]): 83%

Q: For `COc1ccc2c(c1)CCN(C(=O)[C@H]1C[C@@H](CC(=O)O)C1)[C@H]2C(=O)Nc1ccc([Si](C)(C)C)c(F)c1` [Example 33, (cis-3-(((1R)-1-((3-fluoro-4-(trimethylsilyl)phenyl)carbamoyl)-6-methoxy-3,4-dihydroisoquinolin-2(1H)-yl)carbonyl)cyclobutyl)acetic acid], which “percent inhibition” value (IL-17A gene expression) is on record?
A: 94%

Q: What about the inhibition at 1 µM (RORγt [1]) of the same compound?
A: 102%

Q: And the inhibition at 10 µM [2]?
A: 78.5%

Q: What about the inhibition at 3 µM (RORγt [3]) of the same compound?
A: 102%

Q: What about the inhibition at 1 µM (RORγt [4]) of the same compound?
A: 92%

Q: Which results are given for `COCc1ccc2c(c1)CCN(C(=O)[C@H]1C[C@H](CC(=O)O)C1)[C@H]2C(=O)Nc1cc(F)c2c(c1)CCC2(C)C` [Example 24, (trans-3-(((1R)-1-((7-fluoro-1,1-dimethyl-2,3-dihydro-1H-inden-5-yl)carbamoyl)-6-(methoxymethyl)-3,4-dihydroisoquinolin-2(1H)-yl)carbonyl)cyclobutyl)acetic acid]?
A: inhibition at 1 µM (RORγt [1]; test compound 1 μM): 101%; inhibition at 10 µM [2]: 92.7%; inhibition at 3 µM (RORγt [3]; Jurkat): 101%; inhibition at 1 µM (RORγt [4]; test compound 1 μM): 80%

Q: For `COc1ccc2c(n1)CCN(C(=O)[C@H]1C[C@H](CC(=O)O)C1)[C@H]2C(=O)Nc1cc(F)c2c(c1)CCC2(C)C` [Example 20, (trans-3-(((5R)-5-((7-fluoro-1,1-dimethyl-2,3-dihydro-1H-inden-5-yl)carbamoyl)-2-methoxy-7,8-dihydro-1,6-naphthyridin-6(5H)-yl)carbonyl)cyclobutyl)acetic acid], which “percent inhibition” value (IL-17A gene expression) is on record?
A: 99%

Q: For `CCOc1ccc2c(c1)CCN(C(=O)[C@H]1C[C@@H](C(=O)O)C1)[C@H]2C(=O)Nc1cc(F)c([Si](C)(C)C)c(F)c1` [Example 8, cis-3-(((1R)-1-((3,5-difluoro-4-(trimethylsilyl)phenyl)carbamoyl)-6-ethoxy-3,4-dihydroisoquinolin-2(1H)-yl)carbonyl)cyclobutanecarboxylic acid], which “percent inhibition” value (IL-17A gene expression) is on record?
A: 72%

Q: What about the inhibition at 1 µM (RORγt [1]) of the same compound?
A: 102%

Q: And the inhibition at 10 µM [2]?
A: 82.9%

Q: And the inhibition at 3 µM (RORγt [3])?
A: 100%

Q: And the inhibition at 1 µM (RORγt [4])?
A: 90%

Q: How did the “percent inhibition” value (IL-17A gene expression) turn out when `COc1ccc2c(n1)CCN(C(=O)[C@H]1C[C@@H](C(=O)O)C1)[C@H]2C(=O)Nc1cc(F)c([Si](C)(C)C)c(F)c1` [Example 31, cis-3-(((5R)-5-((3,5-difluoro-4-(trimethylsilyl)phenyl)carbamoyl)-2-methoxy-7,8-dihydro-1,6-naphthyridin-6(5H)-yl)carbonyl)cyclobutanecarboxylic acid] was run?
A: 85%

Q: What about the inhibition at 1 µM (RORγt [1]) of the same compound?
A: 102%

Q: And the inhibition at 10 µM [2]?
A: 89.8%

Q: And the inhibition at 3 µM (RORγt [3])?
A: 102%

Q: And the inhibition at 1 µM (RORγt [4])?
A: 86%

Q: `COc1ccc2c(c1)CCN(C(=O)[C@H]1C[C@@H](CC(=O)O)C1)[C@H]2C(=O)Nc1cc(F)c([Si](C)(C)C)c(F)c1` [Example 25, (cis-3-(((1R)-1-((3,5-difluoro-4-(trimethylsilyl)phenyl)carbamoyl)-6-methoxy-3,4-dihydroisoquinolin-2(1H)-yl)carbonyl)cyclobutyl)acetic acid] was tested. Which “percent inhibition” value (IL-17A gene expression) did it give?
A: 92%

Q: And the inhibition at 1 µM (RORγt [1])?
A: 102%

Q: What about the inhibition at 3 µM (RORγt [3]) of the same compound?
A: 101%

Q: What about the inhibition at 1 µM (RORγt [4]) of the same compound?
A: 93%
